The text below walks through data of patent US10800791B2, “Triazole ACC inhibitors and uses thereof” (Gilead Apollo, LLC, priority 2015, dated 2020).

The target of one assay is human (hACC2) (Homo sapiens, UniProt O00763). As to the kind of experiment: In vitro ACC inhibition assay (ADP-Glo), hACC2. Particulars: Table 2b, additional results, 5 nM ACC2, 20 μM ATP, 20 μM acetyl-CoA. Type of assay: biochemical. The protocol:
The detailed procedure is as follows. […] 10 μL ADP glo reagent was added. […] 20 μL kinase detection reagent was added.
(In general: ADP-Glo first removes unused ATP, then detects ADP through luciferase.)

Another assay has as its system C. albicans. Nature of the assay: Antifungal Activity Assay (broth microtiter MIC), C. albicans. Type of assay: cell-based, Candida albicans. Particulars: Candida albicans, ATCC90028, 48 h. The method in brief:
(§1)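 Colonies from 24 h Sabouraud dextrose agar plates (35° C) are suspended in RPMI 1640+MOPS and diluted to give 2.5×10^3 CFU/mL in the wells. Plates are set up per CLSI M27-A3. Visual MIC is recorded at 48 h.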

For the next assay, the system named is C. krusei. As to the kind of experiment: Antifungal Activity Assay (broth microtiter MIC), C. krusei. It is filed as cell-based, Candida krusei. Particulars: Pichia kudriavzevii, ATCC6258, 48 h. In outline: as §1
The subject of the next assay is C. parapsilosis. Nature of the assay: Antifungal Activity Assay (broth microtiter MIC), C. parapsilosis. Type of assay: cell-based, Candida parapsilosis. The settings on record: Lodderomyces parapsilosis, ATCC22019, 48 h. In outline: as §1
For a further assay, the system named is Botrtyis cinerea (Bc). As to the kind of experiment: Growth inhibition assay of fungal pathogens, Bc. Type of assay: cell-based. Particulars: 48 h, growth inhibition at 48 hours vs 2% DMSO control. In outline:
(§2)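 Spore suspension in 17% V8 liquid media; cpd final 50/10/2 or 2/0.4/0.08 ppm, 2% DMSO. OD600 + visual, 24 & 48 h; % inhibition at 48 h vs 2% DMSO ctrl.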

Assay [1] has as its system Collectotrichum graminicola (Cg). Nature of the assay: Growth inhibition assay of fungal pathogens, Cg. Type of assay: cell-based. Particulars: 48 h, growth inhibition at 48 hours vs 2% DMSO control. The method in brief: as §2
For another assay, the system named is Diplodia maydis (Dm). As to the kind of experiment: Growth inhibition assay of fungal pathogens, Dm. Type of assay: cell-based. Particulars: Stenocarpella maydis, 48 h, growth inhibition at 48 hours vs 2% DMSO control. In outline:
as §2

Assay [2] has as its system Fusarium moniliforme (Fm). Nature of the assay: Growth inhibition assay of fungal pathogens, Fm. Type of assay: cell-based. Particulars: Fusarium verticillioides, 48 h, read-out: Concentration at 90% Inhibition Fm. The method in brief:
as §2

Assay [3] concerns Fusarium virguliforme (Fv). Nature of the assay: Growth inhibition assay of fungal pathogens, Fv. It is filed as cell-based. The settings on record: 48 h. In outline:
as §2

In assay [4] the test system is Phytophthora capsici (Pc). Nature of the assay: Growth inhibition assay of fungal pathogens, Pc. Type of assay: cell-based. Particulars: 48 h. In outline:
as §2

Another assay deals with Rhizoctonia solani (Rs). Nature of the assay: Growth inhibition assay of fungal pathogens, Rs. It is filed as cell-based. The settings on record: 48 h.
The next assay concerns Septoria tritici (St). Nature of the assay: Growth inhibition assay of fungal pathogens, St. It is filed as cell-based. Particulars: Zymoseptoria tritici, 48 h, growth inhibition at 48 hours vs 2% DMSO control. The method in brief: as §2
The target of the next assay is fungal (fACC2) (UniProt Q00955). Particulars: read-out: fACC2 (in vitro ACC2 Inhibition Assay, IC50); Table 2b, additional results; ADP-Glo, 5 nM ACC2, 20 μM ATP, 20 μM acetyl-CoA.
fungal (fACC2), sequence (Q00955 whole entry): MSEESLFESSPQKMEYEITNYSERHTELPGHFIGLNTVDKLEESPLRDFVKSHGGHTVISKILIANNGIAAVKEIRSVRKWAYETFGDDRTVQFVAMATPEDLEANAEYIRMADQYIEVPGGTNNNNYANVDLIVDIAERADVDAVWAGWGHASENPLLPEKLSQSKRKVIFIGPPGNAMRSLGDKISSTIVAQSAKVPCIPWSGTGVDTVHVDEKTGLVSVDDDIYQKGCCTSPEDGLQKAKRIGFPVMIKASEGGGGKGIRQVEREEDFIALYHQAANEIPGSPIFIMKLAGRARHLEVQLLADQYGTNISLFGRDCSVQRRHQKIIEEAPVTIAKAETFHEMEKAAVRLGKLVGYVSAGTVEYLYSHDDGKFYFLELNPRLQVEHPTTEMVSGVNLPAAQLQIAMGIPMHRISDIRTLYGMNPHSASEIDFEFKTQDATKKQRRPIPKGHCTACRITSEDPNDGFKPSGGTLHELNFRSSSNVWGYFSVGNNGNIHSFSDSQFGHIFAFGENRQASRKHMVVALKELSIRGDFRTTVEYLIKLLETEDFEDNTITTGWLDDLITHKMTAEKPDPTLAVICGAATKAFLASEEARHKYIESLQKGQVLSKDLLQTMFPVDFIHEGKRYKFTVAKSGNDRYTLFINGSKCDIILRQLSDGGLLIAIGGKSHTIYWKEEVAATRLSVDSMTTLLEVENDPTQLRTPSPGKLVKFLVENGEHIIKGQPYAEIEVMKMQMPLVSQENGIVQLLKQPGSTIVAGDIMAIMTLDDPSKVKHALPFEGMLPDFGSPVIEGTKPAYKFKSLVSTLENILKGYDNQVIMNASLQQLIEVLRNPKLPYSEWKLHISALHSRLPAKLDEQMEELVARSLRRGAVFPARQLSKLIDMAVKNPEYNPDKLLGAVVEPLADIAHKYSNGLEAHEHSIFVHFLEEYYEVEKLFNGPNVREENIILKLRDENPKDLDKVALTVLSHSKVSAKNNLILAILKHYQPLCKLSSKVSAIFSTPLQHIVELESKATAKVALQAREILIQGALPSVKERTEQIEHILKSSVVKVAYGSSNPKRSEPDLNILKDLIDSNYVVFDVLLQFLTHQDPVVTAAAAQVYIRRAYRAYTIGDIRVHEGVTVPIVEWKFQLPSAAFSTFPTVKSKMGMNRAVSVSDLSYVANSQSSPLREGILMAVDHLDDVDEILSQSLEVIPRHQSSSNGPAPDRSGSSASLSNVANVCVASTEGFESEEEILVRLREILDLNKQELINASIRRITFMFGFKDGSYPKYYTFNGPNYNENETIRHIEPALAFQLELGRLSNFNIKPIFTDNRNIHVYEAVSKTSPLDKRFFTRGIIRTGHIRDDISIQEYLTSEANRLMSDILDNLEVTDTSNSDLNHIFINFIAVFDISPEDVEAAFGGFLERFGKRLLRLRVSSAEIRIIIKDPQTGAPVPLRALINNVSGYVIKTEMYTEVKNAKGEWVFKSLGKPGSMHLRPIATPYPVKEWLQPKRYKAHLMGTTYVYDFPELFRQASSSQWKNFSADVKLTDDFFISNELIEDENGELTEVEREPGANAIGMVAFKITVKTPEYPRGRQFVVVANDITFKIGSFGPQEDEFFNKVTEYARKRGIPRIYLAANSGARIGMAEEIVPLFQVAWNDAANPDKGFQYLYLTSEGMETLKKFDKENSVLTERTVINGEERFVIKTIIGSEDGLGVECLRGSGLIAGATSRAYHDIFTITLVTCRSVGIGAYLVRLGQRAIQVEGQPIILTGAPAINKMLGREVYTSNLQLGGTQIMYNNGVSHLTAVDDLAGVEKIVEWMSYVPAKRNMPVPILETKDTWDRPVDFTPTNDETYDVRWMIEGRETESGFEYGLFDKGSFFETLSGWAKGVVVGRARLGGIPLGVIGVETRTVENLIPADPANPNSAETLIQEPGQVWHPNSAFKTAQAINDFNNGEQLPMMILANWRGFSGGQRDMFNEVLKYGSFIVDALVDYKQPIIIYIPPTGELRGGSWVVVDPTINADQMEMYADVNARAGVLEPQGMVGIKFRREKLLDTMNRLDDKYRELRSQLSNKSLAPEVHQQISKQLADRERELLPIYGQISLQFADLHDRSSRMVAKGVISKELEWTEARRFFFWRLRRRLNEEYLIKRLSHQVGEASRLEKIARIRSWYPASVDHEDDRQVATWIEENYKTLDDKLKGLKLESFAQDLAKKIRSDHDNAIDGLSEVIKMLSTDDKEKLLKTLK
The mark [5] stands for this setting: Table 3b (additional results), ATCC 90028, 3 replicates, MIC recorded at 48 h, read-out: MIC, C. albicans ATCC 90028.
Setting [6] is: Table 3b (additional results), ATCC 6258, 3 replicates, MIC recorded at 48 h, read-out: MIC, C. krusei ATCC 6258.
Setting [7] is: Table 3b (additional results), ATCC 22019, 3 replicates, MIC recorded at 48 h, read-out: MIC, C. parapsilosis ATCC 22019.
[8] abbreviates: Botrtyis cinerea, read-out: Concentration at 90% Inhibition Bc.
[9] abbreviates: Collectotrichum graminicola, read-out: Concentration at 90% Inhibition Cg.
Where [10] appears, read: Diplodia maydis, read-out: Concentration at 90% Inhibition Dm.
Where [11] appears, read: Fusarium moniliforme, growth inhibition at 48 hours vs 2% DMSO control.
[12] abbreviates: growth inhibition at 48 hours vs 2% DMSO control, read-out: Concentration at 90% Inhibition Fv.
Setting [13] is: growth inhibition at 48 hours vs 2% DMSO control, read-out: Concentration at 90% Inhibition Pc.
Setting [14] is: mycelial plugs, growth inhibition at 48 hours vs 2% DMSO control, read-out: Concentration at 90% Inhibition Rs.
[15] abbreviates: Septoria tritici, read-out: Concentration at 90% Inhibition St.

≈ marks a conversion by molar mass, not a printed value. Read-outs that look alike come from different tables or passages of the source.

human (hACC2), sequence (O00763 whole entry): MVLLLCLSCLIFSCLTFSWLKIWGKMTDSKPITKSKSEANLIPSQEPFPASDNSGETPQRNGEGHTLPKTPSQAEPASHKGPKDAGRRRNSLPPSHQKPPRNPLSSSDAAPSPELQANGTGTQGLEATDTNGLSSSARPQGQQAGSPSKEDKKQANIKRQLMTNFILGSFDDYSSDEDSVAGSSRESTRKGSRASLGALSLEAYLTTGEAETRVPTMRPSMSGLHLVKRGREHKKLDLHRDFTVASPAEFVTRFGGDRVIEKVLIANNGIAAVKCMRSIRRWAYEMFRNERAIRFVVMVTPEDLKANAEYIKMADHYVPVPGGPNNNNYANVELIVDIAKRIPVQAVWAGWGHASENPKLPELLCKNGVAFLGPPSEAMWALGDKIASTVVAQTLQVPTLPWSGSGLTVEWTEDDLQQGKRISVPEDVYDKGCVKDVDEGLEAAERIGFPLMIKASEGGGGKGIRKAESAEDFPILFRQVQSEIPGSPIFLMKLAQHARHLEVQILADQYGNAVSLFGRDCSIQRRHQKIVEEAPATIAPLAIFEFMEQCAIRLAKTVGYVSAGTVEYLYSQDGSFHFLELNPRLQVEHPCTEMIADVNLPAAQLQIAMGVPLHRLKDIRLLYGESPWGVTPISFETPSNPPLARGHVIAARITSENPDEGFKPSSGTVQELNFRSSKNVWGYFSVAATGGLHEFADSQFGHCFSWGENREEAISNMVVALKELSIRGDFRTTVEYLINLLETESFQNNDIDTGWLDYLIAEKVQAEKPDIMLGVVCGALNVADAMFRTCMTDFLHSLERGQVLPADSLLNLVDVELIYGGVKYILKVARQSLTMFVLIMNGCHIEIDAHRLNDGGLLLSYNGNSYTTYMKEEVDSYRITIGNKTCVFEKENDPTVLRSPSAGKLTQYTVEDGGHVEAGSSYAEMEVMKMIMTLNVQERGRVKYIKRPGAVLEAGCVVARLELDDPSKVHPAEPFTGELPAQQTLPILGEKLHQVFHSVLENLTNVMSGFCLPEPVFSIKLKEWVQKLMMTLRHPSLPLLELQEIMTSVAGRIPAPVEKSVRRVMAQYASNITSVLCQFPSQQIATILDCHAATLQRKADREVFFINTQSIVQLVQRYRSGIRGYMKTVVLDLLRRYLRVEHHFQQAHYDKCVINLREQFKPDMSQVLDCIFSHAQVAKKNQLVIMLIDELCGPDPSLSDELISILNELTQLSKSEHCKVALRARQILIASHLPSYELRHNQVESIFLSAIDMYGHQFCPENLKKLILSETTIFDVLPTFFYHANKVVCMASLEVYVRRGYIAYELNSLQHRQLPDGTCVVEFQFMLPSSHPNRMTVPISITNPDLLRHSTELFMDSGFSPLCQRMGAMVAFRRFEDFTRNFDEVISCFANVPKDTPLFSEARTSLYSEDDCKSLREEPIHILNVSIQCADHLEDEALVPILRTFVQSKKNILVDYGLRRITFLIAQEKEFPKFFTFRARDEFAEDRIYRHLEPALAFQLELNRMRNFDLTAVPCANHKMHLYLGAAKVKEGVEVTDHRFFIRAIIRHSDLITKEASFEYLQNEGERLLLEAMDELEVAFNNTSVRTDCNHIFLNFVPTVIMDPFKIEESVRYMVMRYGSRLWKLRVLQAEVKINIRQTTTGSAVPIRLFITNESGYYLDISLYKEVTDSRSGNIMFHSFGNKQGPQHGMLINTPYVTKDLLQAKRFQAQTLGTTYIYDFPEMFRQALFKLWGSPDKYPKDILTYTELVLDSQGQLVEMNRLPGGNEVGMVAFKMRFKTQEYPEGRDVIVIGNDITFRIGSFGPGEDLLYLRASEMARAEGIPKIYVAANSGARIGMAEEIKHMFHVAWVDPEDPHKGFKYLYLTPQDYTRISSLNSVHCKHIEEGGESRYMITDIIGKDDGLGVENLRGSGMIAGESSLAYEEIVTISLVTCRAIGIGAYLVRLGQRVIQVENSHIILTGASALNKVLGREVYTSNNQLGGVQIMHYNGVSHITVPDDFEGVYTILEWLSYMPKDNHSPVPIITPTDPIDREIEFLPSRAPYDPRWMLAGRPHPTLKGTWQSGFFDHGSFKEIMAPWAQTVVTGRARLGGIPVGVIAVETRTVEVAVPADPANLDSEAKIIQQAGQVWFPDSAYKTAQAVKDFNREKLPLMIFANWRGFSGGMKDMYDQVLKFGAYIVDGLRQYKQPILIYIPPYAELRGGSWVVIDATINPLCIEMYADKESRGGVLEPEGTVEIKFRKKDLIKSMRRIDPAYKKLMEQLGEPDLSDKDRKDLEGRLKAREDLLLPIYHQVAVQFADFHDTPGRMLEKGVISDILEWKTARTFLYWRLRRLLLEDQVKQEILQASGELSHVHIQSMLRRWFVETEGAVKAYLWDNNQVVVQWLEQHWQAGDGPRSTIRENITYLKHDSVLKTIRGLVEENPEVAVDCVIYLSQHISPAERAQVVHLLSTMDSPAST

For `COc1ccc(F)cc1[C@H](Cn1c(=O)n([C@H](C)C(=O)NC(C)C)c(=O)c2c(C)c(-n3nccn3)sc21)OCC(C)(C)C#N` [Compound I-210], the IC50 (as a rule, the concentration that inhibits the measured activity by half) was in the range of 1 to 5 nM on human (hACC2) and 0.3 to 1 nM on fungal (fACC2). Moreover, the MIC (in general, the lowest concentration found to suppress growth) is 1.01 to 2 µg/mL (≈ 1.65 to 3.27 µM) with C. albicans (setting [5]), 2.01 to 4 µg/mL (≈ 3.29 to 6.54 µM) in the assay with C. krusei (setting [6]) and 1.01 to 2 µg/mL (≈ 1.65 to 3.27 µM) with C. parapsilosis (setting [7]). Moreover, the IC90 in the assay on Botrtyis cinerea (Bc) (setting [8]) is 0.4 µg/mL (≈ 0.654 µM); in assay [1] (setting [9]), 0.4 µg/mL (≈ 0.654 µM); in the assay with Diplodia maydis (Dm) (setting [10]) it was 0.4 µg/mL (≈ 0.654 µM); in [2] (setting [11]), 0.08 µg/mL (≈ 0.131 µM); in assay [3] (setting [12]) it was 0.4 µg/mL (≈ 0.654 µM); in assay [4] (setting [13]), > 50 µg/mL. Further, the figures for the IC90 with Rhizoctonia solani (Rs) (setting [14]) and in the assay on Septoria tritici (St) (setting [15]) were 0.08 µg/mL (≈ 0.131 µM) and 2 µg/mL (≈ 3.27 µM), respectively.
As for `COc1ccc(F)cc1[C@H](Cn1c(=O)n([C@@H](C)C(=O)NC(C)C)c(=O)c2c(C)c(-n3nccn3)sc21)OCC(C)(C)C#N` [Compound I-211], the IC50 against human (hACC2) was in the range of 10 to 40 nM; at fungal (fACC2), 1 to 5 nM. Also, the figures for the minimum inhibitory concentration (MIC) in the assay on C. albicans (setting [5]), in the assay with C. krusei (setting [6]) and in the assay on C. parapsilosis (setting [7]) were 1.01 to 2 µg/mL (≈ 1.65 to 3.27 µM), 2.01 to 4 µg/mL (≈ 3.29 to 6.54 µM) and 1.01 to 2 µg/mL (≈ 1.65 to 3.27 µM), respectively. In addition, the IC90 is 2 µg/mL (≈ 3.27 µM) in the assay with Botrtyis cinerea (Bc) (setting [8]); > 50 µg/mL in [1] (setting [9]); 10 µg/mL (≈ 16.3 µM) in the assay with Diplodia maydis (Dm) (setting [10]); 2 µg/mL (≈ 3.27 µM) in assay [2] (setting [11]); > 50 µg/mL in assay [3] (setting [12]); > 50 µg/mL in assay [4] (setting [13]). Besides, the IC90 in the assay with Rhizoctonia solani (Rs) (setting [14]) and with Septoria tritici (St) (setting [15]) was > 50 µg/mL each time.
For the compound `COc1ccc(F)cc1[C@H](Cn1c(=O)n([C@H](C)C(N)=O)c(=O)c2c(C)c(-n3nccn3)sc21)OCC(C)(C)C#N` [Compound I-212], the IC50 against human (hACC2) and at fungal (fACC2) was 1 to 5 nM throughout. Also, the MIC with C. albicans (setting [5]) is 0.25 to 1 µg/mL (≈ 0.439 to 1.76 µM); in the assay on C. krusei (setting [6]), > 4.01 µg/mL; with C. parapsilosis (setting [7]), 2.01 to 4 µg/mL (≈ 3.53 to 7.02 µM). For the same compound, the IC90 was 2 µg/mL (≈ 3.51 µM) with Botrtyis cinerea (Bc) (setting [8]); 10 µg/mL (≈ 17.6 µM) in assay [1] (setting [9]); 10 µg/mL (≈ 17.6 µM) in the assay on Diplodia maydis (Dm) (setting [10]); 2 µg/mL (≈ 3.51 µM) in assay [2] (setting [11]); 10 µg/mL (≈ 17.6 µM) in [3] (setting [12]); > 50 µg/mL in assay [4] (setting [13]). Further, the IC90 in the assay with Rhizoctonia solani (Rs) (setting [14]) was 2 µg/mL (≈ 3.51 µM); with Septoria tritici (St) (setting [15]), > 50 µg/mL.
For `COc1ccc(F)cc1[C@H](Cn1c(=O)n([C@@H](C)C(N)=O)c(=O)c2c(C)c(-n3nccn3)sc21)OCC(C)(C)C#N` [Compound I-213], the IC50 at human (hACC2) lay in the range of 5 to 10 nM; on fungal (fACC2), 1 to 5 nM. The minimal inhibitory concentration (MIC) in the assay with C. albicans (setting [5]) is 0.25 to 1 µg/mL (≈ 0.439 to 1.76 µM); in the assay on C. krusei (setting [6]), > 4.01 µg/mL; in the assay with C. parapsilosis (setting [7]), 2.01 to 4 µg/mL (≈ 3.53 to 7.02 µM). Also, the IC90 with Botrtyis cinerea (Bc) (setting [8]) was > 50 µg/mL; in assay [1] (setting [9]) it was > 50 µg/mL; with Diplodia maydis (Dm) (setting [10]) it was > 50 µg/mL; in [2] (setting [11]), 10 µg/mL (≈ 17.6 µM); in assay [3] (setting [12]) it was > 50 µg/mL; in assay [4] (setting [13]), > 50 µg/mL. Besides, the IC90 in the assay with Rhizoctonia solani (Rs) (setting [14]) and in the assay on Septoria tritici (St) (setting [15]) was > 50 µg/mL in each case.
With `COc1ccc(F)cc1[C@H](Cn1c(=O)n(C(C)(C)C(=O)NC(C)C)c(=O)c2c(C)c(-n3nccn3)sc21)O[C@H]1CC[C@@H](O)CC1` [Compound I-216], the results for the IC50 on human (hACC2) and on fungal (fACC2) were 5 to 10 nM and 0.3 to 1 nM, respectively. Moreover, the MIC with C. albicans (read-out: MIC, C. albicans ATCC 90028, Table 3b (additional results), 3 replicates, MIC recorded at 48 h) was in the range of 0.25 to 1 µg/mL (≈ 0.389 to 1.56 µM); in the assay on C. krusei (read-out: MIC, C. krusei ATCC 6258, Table 3b (additional results), 3 replicates, MIC recorded at 48 h) it was 0.06 to 0.249 µg/mL (≈ 0.0933 to 0.387 µM); with C. parapsilosis (read-out: MIC, C. parapsilosis ATCC 22019, Table 3b (additional results), 3 replicates, MIC recorded at 48 h) it was 0.25 to 1 µg/mL (≈ 0.389 to 1.56 µM). Also, the IC90 in the assay on Botrtyis cinerea (Bc) (read-out: Concentration at 90% Inhibition Bc, Botrtyis cinerea) is 0.4 µg/mL (≈ 0.622 µM); in assay [1] (read-out: Concentration at 90% Inhibition Cg, Collectotrichum graminicola), 2 µg/mL (≈ 3.11 µM); in the assay on Diplodia maydis (Dm) (read-out: Concentration at 90% Inhibition Dm, Diplodia maydis), 2 µg/mL (≈ 3.11 µM); in assay [2] it was 0.08 µg/mL (≈ 0.124 µM); in [3] (read-out: Concentration at 90% Inhibition Fv, Fusarium virguliforme, growth inhibition at 48 hours vs 2% DMSO control), 0.4 µg/mL (≈ 0.622 µM); in assay [4] (read-out: Concentration at 90% Inhibition Pc, Phytophthora capsici, growth inhibition at 48 hours vs 2% DMSO control), > 50 µg/mL. In addition, the IC90 was 0.08 µg/mL (≈ 0.124 µM) with Rhizoctonia solani (Rs) (read-out: Concentration at 90% Inhibition Rs, Rhizoctonia solani, mycelial plugs, growth inhibition at 48 hours vs 2% DMSO control) and > 50 µg/mL in the assay on Septoria tritici (St) (read-out: Concentration at 90% Inhibition St, Septoria tritici).
